One test concerns B. Anthracis. Kind of test: microbe, parasite or virus in culture. In kind it is cell-based. The note with it: Bacillus anthracis; for inhibition at 3 µM: read-out: B. Anthracis 3 μM (growth inhibition); for inhibition at 10 µM: read-out: B. Anthracis 10 μM (growth inhibition); for inhibition at 30 µM: read-out: B. Anthracis 30 μM (growth inhibition).
The next test relates to S. MRSA. Kind of test: microbe, parasite or virus in culture. In kind it is cell-based. The note with it: Staphylococcus aureus, MRSA; for inhibition at 3 µM: read-out: S. MRSA 3 μM (growth inhibition); for inhibition at 10 µM: read-out: S. MRSA 10 μM (growth inhibition); for inhibition at 30 µM: read-out: S. MRSA 30 μM (growth inhibition).

Molecules are shown by their SMILES.

Broadly, the inhibition is the change of the read-out against control, counted positive when it falls.

For `CCOc1cccc(N2C(=O)/C(=C/c3ccc(-c4cc(C(=O)O)ccc4Cl)o3)C(=O)NC2=S)c1` [Cmpd 27], in the test with B. Anthracis, the inhibition at 3 µM was -9.26%, the inhibition at 10 µM came to 0% and the inhibition at 30 µM was -11.6%. Further, in the test on S. MRSA, the inhibition at 3 µM amounted to 0.74%, the inhibition at 10 µM turned out to be 8.82% and the inhibition at 30 µM was -0.74%.

Take `O=C1NC(=S)NC(=O)C1=Cc1ccc(-c2cccc(C(=O)O)c2)o1` [Cmpd 28]: in the test on B. Anthracis, the inhibition at 3 µM is -9.26%, the inhibition at 10 µM is -3.09% and the inhibition at 30 µM was -13.1%. For the same molecule, in the test with S. MRSA, the inhibition at 3 µM is -0.74%, the inhibition at 10 µM was -2.21% and the inhibition at 30 µM was -3.68%.

For `CN1C(=O)/C(=C/c2ccc(-c3ccc(Br)c(Cl)c3)o2)C(=O)NC1=S` [Cmpd 29], the inhibition at 10 µM in the test with B. Anthracis amounted to 80%; in the test with S. MRSA, 52.9%. Moreover, the inhibition at 30 µM in the test with B. Anthracis is 90.1%; in the test on S. MRSA, 86.8%.

On to `CCN1C(=O)NC(=O)/C(=C\c2ccc(-c3ccc(Cl)c(C(=O)O)c3)o2)C1=O` [Cmpd 30], for which, in the test with B. Anthracis, the inhibition at 3 µM was -8.49%, the inhibition at 10 µM is 1% and the inhibition at 30 µM is -11.6%. Besides, in the test on S. MRSA, the inhibition at 3 µM came to 1.47%, the inhibition at 10 µM was -2.94% and the inhibition at 30 µM was -4.41%.

Turning to `COc1ccc(-c2ccc(/C=C3/NC(=S)N(C(Cc4ccccc4)C(=O)O)C3=O)s2)cc1` (centres unmarked) [Cmpd 33], in the test on B. Anthracis, the inhibition at 3 µM was -3.85%, the inhibition at 10 µM came to 0% and the inhibition at 30 µM came to 100%. For the same molecule, in the test on S. MRSA, the inhibition at 3 µM is -2.94%, the inhibition at 10 µM was -13.2% and the inhibition at 30 µM turned out to be 18.5%.

For `O=C(O)C(Cc1ccccc1)N1C(=O)/C(=C\c2ccc(-c3ccc(F)cc3)s2)NC1=S` (centres unmarked) [Cmpd 34], in the test with B. Anthracis, the inhibition at 3 µM was found to be 0%, the inhibition at 10 µM stood at 6.99% and the inhibition at 30 µM stood at 98.8%. Also, in the test with S. MRSA, the inhibition at 3 µM is -15.8%, the inhibition at 10 µM is -24.8% and the inhibition at 30 µM came out at 46.2%.

Regarding `O=C(O)C(Cc1ccccc1)N1C(=O)/C(=C\c2ccc(-c3ccc(Cl)cc3)s2)NC1=S` (centres unmarked) [Cmpd 35], in the test on B. Anthracis, the inhibition at 3 µM is -5.4%, the inhibition at 10 µM turned out to be 100% and the inhibition at 30 µM is 100%. In the test on S. MRSA, the inhibition at 3 µM was -2.94%, the inhibition at 10 µM was -1.47% and the inhibition at 30 µM stood at 91%.

For the molecule `O=C(O)C(Cc1ccccc1)N1C(=O)/C(=C\c2ccc(-c3ccc(Br)cc3)s2)NC1=S` (centres unmarked) [Cmpd 36], in the test on B. Anthracis, the inhibition at 3 µM was 76.9%, the inhibition at 10 µM worked out at 97.7% and the inhibition at 30 µM was found to be 96.7%. Moreover, in the test with S. MRSA, the inhibition at 3 µM was -19.2%, the inhibition at 10 µM was found to be 91.1% and the inhibition at 30 µM is 91.1%.

On to `O=C(O)C(Cc1ccccc1)N1C(=O)/C(=C\c2ccc(Br)s2)NC1=S` (centres unmarked) [Cmpd 37], for which the results for the inhibition at 30 µM in the test with B. Anthracis and in the test with S. MRSA were 0% and -6.27%, respectively.

Turning to `O=C(O)C(Cc1ccccc1)N1C(=O)/C(=C\c2ccc(-c3ccc(Br)cc3)o2)NC1=S` (centres unmarked) [Cmpd 39], in the test with B. Anthracis, the inhibition at 3 µM was found to be 72.6%, the inhibition at 10 µM is 98.8% and the inhibition at 30 µM is 98.8%. Moreover, in the test with S. MRSA, the inhibition at 3 µM is -9.55%, the inhibition at 10 µM amounted to 92.5% and the inhibition at 30 µM was 95.4%.

`O=C(O)C(Cc1ccccc1)N1C(=O)/C(=C\c2ccc(-c3ccc(Br)c(Cl)c3)o2)NC1=S` (centres unmarked) [Cmpd 40]: in the test with B. Anthracis, the inhibition at 3 µM came out at 98.1%, the inhibition at 10 µM is 98.1% and the inhibition at 30 µM turned out to be 98.1%. Moreover, in the test with S. MRSA, the inhibition at 3 µM came to 17.9%, the inhibition at 10 µM was 95.7% and the inhibition at 30 µM is 95.7%.

As for `O=C(O)C(Cc1ccccc1)N1C(=O)/C(=C\c2ccc(-c3ccc(Br)c(Cl)c3)s2)NC1=S` (centres unmarked) [Cmpd 41], in the test on B. Anthracis, the inhibition at 3 µM was determined as 19.5%, the inhibition at 10 µM worked out at 8.15% and the inhibition at 30 µM is 94.5%. In addition, in the test with S. MRSA, the inhibition at 10 µM was -7.45% and the inhibition at 30 µM was -0.89%.

These data come from US20140073639A1 (priority 2012, published 2014).
